Measured values published in US9290478B2, “Substituted quinoxalines as FGFR kinase inhibitors” (ASTEX THERAPEUTICS LTD, priority 2010, dated 2016).

Columns and labels:
Type in all cases: cell-based
[1] = target: T1, Ba/F3-FGFR1-transfected cells (Homo sapiens, UniProt P11362); experiment: Ba/F3-FGFR1 (minus IL3 or plus IL3) cellular proliferation assay; conditions: minus IL3
T1 construct: BAF3-FGFR1 (MIN IL3) pIC50; other: minus IL3
Procedure: (§1) Ba/F3-FGFR1 (Minus IL3 or Plus IL3) (Cellular Proliferation Assay)
(§2) In a 384 well plate, 100 nl of compound dilution in DMSO was sprayed before adding 50 μl cell culture medium (phenol red free RPMI-1640, 10% FBS, 2 mM L-Glutamine and 50 μg/ml Gentamycin) containing 20000 cells per well of Ba/F3-FGFR1-transfected cells. Cells were put in an incubator at 37° C. and 5% CO2. After 24 hours, 10 μl of Alamar Blue solution (0.5 mM K3Fe(CN)6, 0.5 mM K4Fe(CN)6, 0.15 mM Resazurin and 100 mM Phosphate Buffer) was added to the wells, incubated for 4 hours at 37° C. and 5% CO2 before RFU's (Relative Fluorescence Units) (ex. 540 nm., em. 590 nm.) were measured in a fluororescence plate reader.
(§3) In this assay, the inhibitory effect of different compound concentrations (range 10 μM to 0.1 nM) was determined and used to calculate an IC50 (M) and pIC50 (−log IC50) value.
(§4) As a counterscreen the same experiment was performed in the presence of 10 ng/ml murine IL3.

[2] = tested on: Ba/F3-FGFR1-transfected cells; experiment: as above; conditions: plus 10 ng/ml murine IL3 (counterscreen); for IC50: 24 h, read-out: BAF3-FGFR1 (PLUS IL3) pIC50 (converted)
Procedure: as §1, §2, §3, §4

[3] = target: T2, Ba/F3-KDR-transfected cells (Homo sapiens, UniProt P35968); experiment: Ba/F3-KDR (minus IL3 or plus IL3) cellular proliferation assay; conditions: minus IL3
T2 construct: BAF3-KDR (MIN IL3) pIC50; other: minus IL3
T2 sequence (P35968 whole entry, change not shown): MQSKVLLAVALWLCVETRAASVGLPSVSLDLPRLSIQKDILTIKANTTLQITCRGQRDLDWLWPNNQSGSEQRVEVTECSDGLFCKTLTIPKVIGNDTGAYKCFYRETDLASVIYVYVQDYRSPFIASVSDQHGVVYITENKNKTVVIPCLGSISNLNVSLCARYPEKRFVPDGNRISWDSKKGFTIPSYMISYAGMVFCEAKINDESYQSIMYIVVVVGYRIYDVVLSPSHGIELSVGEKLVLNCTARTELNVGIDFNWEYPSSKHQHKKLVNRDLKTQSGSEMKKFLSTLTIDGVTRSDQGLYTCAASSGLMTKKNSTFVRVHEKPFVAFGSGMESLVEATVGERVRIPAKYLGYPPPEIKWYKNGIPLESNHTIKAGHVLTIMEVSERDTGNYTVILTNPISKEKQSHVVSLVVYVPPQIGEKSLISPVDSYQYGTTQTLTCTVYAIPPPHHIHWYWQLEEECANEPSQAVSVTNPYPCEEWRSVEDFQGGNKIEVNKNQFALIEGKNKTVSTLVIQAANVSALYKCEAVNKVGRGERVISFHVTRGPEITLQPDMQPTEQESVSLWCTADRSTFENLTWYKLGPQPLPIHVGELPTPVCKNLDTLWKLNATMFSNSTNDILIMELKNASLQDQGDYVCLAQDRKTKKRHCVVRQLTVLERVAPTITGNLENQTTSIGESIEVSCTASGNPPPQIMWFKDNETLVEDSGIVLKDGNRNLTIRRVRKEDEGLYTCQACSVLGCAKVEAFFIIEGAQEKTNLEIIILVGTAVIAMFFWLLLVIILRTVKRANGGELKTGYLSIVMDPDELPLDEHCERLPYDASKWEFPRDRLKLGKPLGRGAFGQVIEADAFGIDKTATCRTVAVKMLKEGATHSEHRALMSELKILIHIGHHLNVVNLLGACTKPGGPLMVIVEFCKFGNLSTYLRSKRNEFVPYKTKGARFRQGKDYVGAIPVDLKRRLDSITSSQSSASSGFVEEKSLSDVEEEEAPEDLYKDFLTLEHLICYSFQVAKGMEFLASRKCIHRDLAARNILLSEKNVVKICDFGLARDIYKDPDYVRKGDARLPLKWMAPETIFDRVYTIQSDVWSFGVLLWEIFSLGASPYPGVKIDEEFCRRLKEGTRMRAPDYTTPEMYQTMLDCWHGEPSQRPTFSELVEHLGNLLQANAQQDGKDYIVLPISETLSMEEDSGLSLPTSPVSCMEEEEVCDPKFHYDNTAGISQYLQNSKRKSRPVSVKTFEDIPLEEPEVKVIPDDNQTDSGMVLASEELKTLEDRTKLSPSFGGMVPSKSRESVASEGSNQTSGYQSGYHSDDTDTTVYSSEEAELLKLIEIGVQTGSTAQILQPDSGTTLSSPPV
Procedure: (§5) Ba/F3-KDR (Minus IL3 or Plus IL3) (Cellular Proliferation Assay)
as §2, with “nI” for “nl”, “Ba/F3-KDR-transfected” for “Ba/F3-FGFR1-transfected”
(§6) In this assay, the inhibitory effect of different compound concentrations (range 10 μM to 0.1 nM) was determined and used to calculate an IC50 (M) and pIC50 (−log IC50) value. As a counterscreen the same experiment was performed in the presence of 10 ng/ml murine IL3.

[4] = tested on: Ba/F3-KDR-transfected cells; experiment: as above; conditions: plus 10 ng/ml murine IL3 (counterscreen); for IC50: 24 h, read-out: BAF3-KDR (PLUS IL3) pIC50 (converted)
Procedure: as §5
as §2, with “nI” for “nl”, “Ba/F3-KDR-transfected” for “Ba/F3-FGFR1-transfected”
as §6

[5] = target: T3, Ba/F3-Flt3-transfected cells (Homo sapiens, UniProt P36888, cells depend on it, form not given); experiment: Ba/F3-Flt3 (minus IL3 or plus IL3) cellular proliferation assay; conditions: minus IL3
T3 construct: BAF3-FLT3 (MIN IL3) pIC50; other: minus IL3
T3 sequence (P36888 1-993): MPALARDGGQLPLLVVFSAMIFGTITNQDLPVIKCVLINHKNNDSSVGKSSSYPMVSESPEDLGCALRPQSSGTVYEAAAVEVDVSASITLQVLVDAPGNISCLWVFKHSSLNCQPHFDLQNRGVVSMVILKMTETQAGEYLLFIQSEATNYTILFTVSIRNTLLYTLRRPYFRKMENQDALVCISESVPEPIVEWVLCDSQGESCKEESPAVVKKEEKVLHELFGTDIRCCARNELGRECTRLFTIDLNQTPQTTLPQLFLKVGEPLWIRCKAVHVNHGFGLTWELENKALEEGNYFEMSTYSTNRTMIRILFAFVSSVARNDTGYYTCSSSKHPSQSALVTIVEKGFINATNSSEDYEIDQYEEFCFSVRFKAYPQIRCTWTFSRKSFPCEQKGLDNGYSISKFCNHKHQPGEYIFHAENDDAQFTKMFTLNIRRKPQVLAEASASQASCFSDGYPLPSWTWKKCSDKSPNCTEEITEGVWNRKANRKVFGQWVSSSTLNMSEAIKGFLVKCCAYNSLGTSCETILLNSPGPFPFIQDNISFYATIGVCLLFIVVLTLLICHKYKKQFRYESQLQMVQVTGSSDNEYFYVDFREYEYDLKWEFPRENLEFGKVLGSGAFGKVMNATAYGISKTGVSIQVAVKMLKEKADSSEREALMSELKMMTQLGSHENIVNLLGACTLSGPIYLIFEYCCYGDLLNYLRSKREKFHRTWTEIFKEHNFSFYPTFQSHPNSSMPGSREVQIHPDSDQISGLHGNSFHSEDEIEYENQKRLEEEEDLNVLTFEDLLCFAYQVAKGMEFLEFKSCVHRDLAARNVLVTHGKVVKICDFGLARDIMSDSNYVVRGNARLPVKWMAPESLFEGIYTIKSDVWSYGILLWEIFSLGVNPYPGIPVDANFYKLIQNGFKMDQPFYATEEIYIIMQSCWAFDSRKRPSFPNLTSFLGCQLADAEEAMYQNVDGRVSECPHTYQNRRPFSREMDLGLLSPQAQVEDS
Procedure: (§7) Ba/F3-Flt3 (Minus IL3 or Plus IL3) (Cellular Proliferation Assay)
as §2, with “Ba/F3-Flt3-transfected” for “Ba/F3-FGFR1-transfected”
as §3, §4

[6] = tested on: Ba/F3-Flt3-transfected cells; experiment: as above; conditions: plus 10 ng/ml murine IL3 (counterscreen); for IC50: 24 h, read-out: BAF3_FLT3 (PLUS IL3) pIC50 (converted)
Procedure: as §7
as §2, with “Ba/F3-Flt3-transfected” for “Ba/F3-FGFR1-transfected”
as §3, §4

T1 sequence (P11362 whole entry, change not shown): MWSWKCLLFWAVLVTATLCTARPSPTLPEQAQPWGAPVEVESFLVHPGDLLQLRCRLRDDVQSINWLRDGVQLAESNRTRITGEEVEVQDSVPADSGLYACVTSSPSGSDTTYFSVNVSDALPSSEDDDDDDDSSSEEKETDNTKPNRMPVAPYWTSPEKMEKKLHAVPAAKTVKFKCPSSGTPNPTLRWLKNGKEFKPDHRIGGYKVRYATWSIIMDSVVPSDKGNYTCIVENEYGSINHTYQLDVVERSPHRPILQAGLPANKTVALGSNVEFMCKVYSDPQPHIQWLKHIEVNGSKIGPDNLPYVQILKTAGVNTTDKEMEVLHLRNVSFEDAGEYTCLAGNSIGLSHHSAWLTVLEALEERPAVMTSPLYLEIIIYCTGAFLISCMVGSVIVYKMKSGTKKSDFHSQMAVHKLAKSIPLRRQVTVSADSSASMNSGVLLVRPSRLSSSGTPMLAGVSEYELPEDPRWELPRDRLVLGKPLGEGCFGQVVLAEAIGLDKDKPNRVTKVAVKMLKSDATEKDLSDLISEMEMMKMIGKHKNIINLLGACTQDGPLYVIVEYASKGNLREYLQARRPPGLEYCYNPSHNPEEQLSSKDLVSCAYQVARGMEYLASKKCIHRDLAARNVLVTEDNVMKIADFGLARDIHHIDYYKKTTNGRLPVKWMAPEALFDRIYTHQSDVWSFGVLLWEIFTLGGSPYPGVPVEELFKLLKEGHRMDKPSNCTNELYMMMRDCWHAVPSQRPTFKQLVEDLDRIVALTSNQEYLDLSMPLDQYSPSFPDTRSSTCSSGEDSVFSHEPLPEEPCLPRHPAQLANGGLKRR

| BAF3-FGFR1 (MIN IL3) pIC50 [1] | BAF3-KDR (MIN IL3) pIC50 [3] | BAF3-FLT3 (MIN IL3) pIC50 [5] | SMILES | IC50 [2] [µM] | IC50 [4] [µM] | IC50 [6] [µM] | BAF3-FGFR1 (PLUS IL3) pIC50 [2] | BAF3-KDR (PLUS IL3) pIC50 [4] | BAF3_FLT3 (PLUS IL3) pIC50 [6] |
| --- | --- | --- | --- | --- | --- | --- | --- | --- | --- |
| <5 | <5 | <5 | COc1cc(OC)cc(C(CC(C)(O)CNC(C)C)c2ccc3ncc(-c4cnn(C)c4)nc3c2)c1.Cl (stereo not drawn) [Compound 25] | > 10 | > 10 | > 10 |  |  |  |
| <5 | <5 | <5 | COc1cc(OC)cc(C(CC(=O)NC(C)C)c2ccc3ncc(-c4cnn(C)c4)nc3c2)c1 (stereo not drawn) [Compound 23] | > 10 | > 10 | > 10 |  |  |  |
| <5 | <5 | <5 | CNCC(O)(c1cc(OC)cc(OC)c1)c1ccc2ncc(-c3cnn(C)c3)nc2c1.Cl (single isomer, unassigned) [Compound 38] |  |  |  | <5 | <5 | <5 |
| 6.49 | 5.18 | 5.09 | COc1cc(OC)cc(/C(=C\CNC(C)C)c2ccc3ncc(-c4cnn(C)c4)nc3c2)c1 [Compound 8, {(Z)-3-(3,5-Dimethoxy-phenyl)-3-[3-(1-methyl-1H-pyrazol-4-yl)-quinoxalin-6-yl]-allyl}-isopropyl-amine] | > 10 | > 10 | ~8.71 |  |  |  |
| <5 | <5 | <5 | COc1cc(OC)cc(C(NCCNC(C)C)c2ccc3ncc(-c4cnn(C)c4)nc3c2)c1.Cl (single isomer, unassigned) [Compound 39] |  |  |  | <5 | <5 | <5 |

Second part, the compound before the results:

| SMILES | BAF3-FGFR1 (MIN IL3) pIC50 [1] | BAF3-KDR (MIN IL3) pIC50 [3] | BAF3-FLT3 (MIN IL3) pIC50 [5] | IC50 [2] [µM] | IC50 [4] [µM] | IC50 [6] [µM] | BAF3-FGFR1 (PLUS IL3) pIC50 [2] | BAF3-KDR (PLUS IL3) pIC50 [4] | BAF3_FLT3 (PLUS IL3) pIC50 [6] |
| --- | --- | --- | --- | --- | --- | --- | --- | --- | --- |
| COc1cc(OC)cc(/C(=C\CN(C)C)c2ccc3ncc(-c4cnn(C)c4)nc3c2)c1 [Compound 10, {(Z)-3-(3,5-Dimethoxy-phenyl)-3-[3-(1-methyl-1H-pyrazol-4-yl)-quinoxalin-6-yl]-allyl}-dimethyl-amine] | 5.81 | <5 | <5 | > 10 | > 10 | > 10 |  |  |  |
| COc1cc(OC)cc(/C(=C\CNCC(F)(F)F)c2ccc3ncc(-c4cnn(C)c4)nc3c2)c1 [Compound 14, {(Z)-3-(3,5-Dimethoxy-phenyl)-3-[3-(1-methyl-1H-pyrazol-4-yl)-quinoxalin-6-yl]-allyl}-(2,2,2-trifluoro-ethyl)-amine] | 6.17 | <5 | <5 | > 10 | > 10 | > 10 |  |  |  |
| Cn1cc(-c2cnc3ccc(C(O)c4ccccc4)cc3n2)cn1 (stereo not drawn) [Compound 28] | <5 | <5 | <5 | > 10 | > 10 | > 10 |  |  |  |
| COc1cc(OC)cc(/C(=C\C#N)c2ccc3ncc(-c4cnn(C)c4)nc3c2)c1 [Compound 4] | 5.3 | <5 | 5.29 | > 10 | > 10 | > 10 |  |  |  |
| COc1cc(OC)cc(/C(=C/C#N)c2ccc3ncc(-c4cnn(C)c4)nc3c2)c1 [Compound 3] | <5 | <5 | <5 | > 10 | > 10 | > 10 |  |  |  |
